Data taken from patent publication US20260226102A1, “PEPTIDES FOR INCRETIN SYNTHESIS” (priority 2022, published 2026).
Counter-ions that a name gives are not always drawn. Like-named read-outs stand apart in the source and are kept apart here. Square brackets hold non-standard residues; d marks the D form. Peptide text beside a SMILES is read from it. * marks the point of attachment. Boc = CC(C)(C)OC(=O)*; Aib = CC(C)(N)C(=O)O; OcHex = C1CCC(O*)CC1; OBn = c1ccc(CO*)cc1; OtBu = CC(C)(C)O*; tBu = CC(C)(C)*; OAll = C=CCO*

What was measured:
[1] = Dynamic vapor sorption (DVS) analysis of hygroscopicity; assay type: physicochemical
From the text: Crystallization of Y-Aib-E-G helps to reject impurities from the crude material. […] Crystallization of the crude Y-Aib-E-G spiked with 1% dimer (impurity) yielded a crystalline Y-Aib-E-G with almost complete rejection of the dimer. Crystallization also improves physical properties, for example, the hygroscopicity.

[2] = Physical stability of crystalline solid form on isolation/drying (XRPD); assay type: physicochemical; settings: for physical stability of the crystalline form: during isolation or upon air-drying/drying
[3] = standing 24 hours or more
Experimental: Peptide samples were screened for crystal stability in several organic solvents. […] The following organic solvents were used for the study: Acetone, ACN, MeOH, EtOH, IPA, BuOH, EtOAc, MTBE, THF, MEK, toluene, and water.
30 mg samples of each peptide tetramer were dispensed into sample vials using an automated dispenser (one vial of each peptide for testing with each solvent). […] Samples were then allowed to stand for 24 hours or more.

Compound	wt % gain in sorption from 0% to 95% RH [1]	Crystal Formed ([3]; solvent ACN)	Crystal Formed ([3]; solvent Acetone)	Crystal Formed ([3]; solvent BuOH)	Crystal Formed ([3]; solvent EtOAc)	Crystal Formed ([3]; solvent EtOH)	Crystal Formed ([3]; solvent H2O)	Crystal Formed ([3]; solvent IPA)	Crystal Formed ([3]; solvent MEK)	Crystal Formed ([3]; solvent MTBE)	Crystal Formed ([3]; solvent MeOH)	Crystal Formed ([3]; solvent THF)	Crystal Formed ([3]; solvent toluene)	physical stability of the crystalline form after vacuum drying ([2]; vacuum drying at 32-33° C. for 1 day)	physical stability of the crystalline form [2]
CC(C)(C)OC[C@H](NC(=O)[C@H](COC(C)(C)C)NC(=O)[C@@H]1CCCN1C(=O)CN)C(=O)NCC(N)=O [G-P-S-S-G-NH2 Form A, Gly-Pro-Ser(tBu)-Ser(tBu)-Gly-NH2] (H-GPS(tBu)S(tBu)G-NH2)															physically is not stable and converts to Form B easily
CC(C)(C)OC(=O)NC(Cc1ccc(OC(C)(C)C)cc1)C(=O)NC(C)(C)C(=O)NC(CCC(=O)OC1CCCCC1)C(=O)NCC(=O)O (stereo not drawn) [Boc—Y(tBu)-Aib-E(cHx)-G-COOH, Boc-Y(tBu)-Aib-E(cHx)-G-COOH] (Boc-Y(tBu)[Aib]E(OcHex)G-OH; configuration not given here)		No	No	No	No	No	No	No	No	No	No	No	No		
C[C@H](N)C(=O)N1CCC[C@H]1C(=O)N1CCC[C@H]1C(=O)N1CCC[C@H]1C(=O)N[C@@H](COC(C)(C)C)C(N)=O [H-A-P-P-P-S-NH2 HCl Form A, H-Ala-Pro-Pro-Pro-Ser(tBu)-NH2] (H-APPPS(tBu)-NH2)															loses crystallinity upon isolation/drying
COC(=O)CCC(NC(=O)C(C)(C)NC(=O)C(Cc1ccc(OC(C)(C)C)cc1)NC(=O)OC(C)(C)C)C(=O)NCC(=O)O (stereo not drawn) [Boc—Y(tBu)-Aib-E(Me)-G-COOH, Boc-Y(tBu)-Aib-E(Me)-G-COOH] (Boc-Y(tBu)[Aib]E(OMe)G-OH; configuration not given here)		No	No	No	No	No	No	No	No	Yes	No	No	No		
CC(C)(C)OC(=O)NC(Cc1cn(-c2ccc([N+](=O)[O-])cc2[N+](=O)[O-])cn1)C(=O)NC(C)(C)C(=O)NC(CCC(=O)NC(c1ccccc1)(c1ccccc1)c1ccccc1)C(=O)NCC(=O)O (stereo not drawn) [H(DNP)-Aib-Q-G Form A, (Boc)-His(dnp)-Aib-Gln(trt)-Gly]															converts to H(DNP)-Aib-Q-G Form C easily
CC(C)(C)OC[C@H](NC(=O)[C@H](COC(C)(C)C)NC(=O)[C@@H]1CCCN1C(=O)CN)C(=O)NCC(N)=O [G-P-S-S-G-NH2 Form B, Gly-Pro-Ser(tBu)-Ser(tBu)-Gly-NH2] (H-GPS(tBu)S(tBu)G-NH2)														remained as Form B	

The next lines start with results.

wt % gain in sorption from 0% to 95% RH [1]	Crystal Formed ([3]; solvent ACN)	Crystal Formed ([3]; solvent Acetone)	Crystal Formed ([3]; solvent BuOH)	Crystal Formed ([3]; solvent EtOAc)	Crystal Formed ([3]; solvent EtOH)	Crystal Formed ([3]; solvent H2O)	Crystal Formed ([3]; solvent IPA)	Crystal Formed ([3]; solvent MEK)	Crystal Formed ([3]; solvent MTBE)	Crystal Formed ([3]; solvent MeOH)	Crystal Formed ([3]; solvent THF)	Crystal Formed ([3]; solvent toluene)	physical stability of the crystalline form after vacuum drying ([2]; vacuum drying at 32-33° C. for 1 day)	Compound	physical stability of the crystalline form [2]
1.4 wt %														CC(C)(C)OC(=O)CC[C@H](NC(=O)C(C)(C)NC(=O)[C@H](Cc1ccc(OC(C)(C)C)cc1)NC(=O)OC(C)(C)C)C(=O)NCC(=O)O [Y-Aib-E-G Form B, Boc-l-Tyr (tBu)-Aib-Glu(OtBu)-Gly-OH] (Boc-Y(tBu)[Aib]E(OtBu)G-OH)	
4.1 wt %														CC(C)(C)OC(=O)CC[C@H](NC(=O)C(C)(C)NC(=O)[C@H](Cc1ccc(OC(C)(C)C)cc1)NC(=O)OC(C)(C)C)C(=O)NCC(=O)O [amorphous Y-Aib-E-G, Boc-l-Tyr (tBu)-Aib-Glu(OtBu)-Gly-OH] (Boc-Y(tBu)[Aib]E(OtBu)G-OH)	
	No	No	No	Yes	No	No	No	Yes	Yes	No	No	No		C=CCOC(=O)CCC(NC(=O)C(C)(C)NC(=O)C(Cc1ccc(OC(C)(C)C)cc1)NC(=O)OC(C)(C)C)C(=O)NCC(=O)O (stereo not drawn) [Boc—Y(tBu)-Aib-E(All)-G-COOH, Boc-Y(tBu)-Aib-E(All)-G-COOH] (Boc-Y(tBu)[Aib]E(OAll)G-OH; configuration not given here)	
	Yes	Yes	No	Yes	No	No	No	Yes	Yes	No	Yes	Yes		CC(C)(C)OC(=O)N[C@@H](Cc1ccc(OC(C)(C)C)cc1)C(=O)NC(C)(C)C(=O)N[C@@H](CCC(=O)OCc1ccccc1)C(=O)NCC(=O)O [Boc—Y(tBu)-Aib-E(Bzl)-G-COOH, Boc-Y(tBu)-Aib-E(Bzl)-G-COOH] (Boc-Y(tBu)[Aib]E(OBn)G-OH)	
